Converted amounts (≈) assume the structure as drawn.
What was measured:
[1] = system: Staphylococcus sp.; assay: in vitro antibacterial evaluation, MIC by broth dilution; assay type: cell-based; conditions: broth dilution, 18 hours at 35° C.
Procedure, shortened: (§1)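 Inoculum 5×10^5 CFU/mL; concentrations 64 to 0.06 μg/mL; MIC defined as lowest inhibitory level. Conducted by broth dilution under NCCLS guidelines.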

[2] = system: Streptococcus sp.; assay: as above; assay type: cell-based; conditions: broth dilution, 18 hours at 35° C.
Procedure, shortened: as §1

[3] = system: Enterococcus sp.; assay: as above; assay type: cell-based; conditions: broth dilution, 18 hours at 35° C.
Procedure, shortened: as §1

[4] = system: Staphylococcus aureus-SMITH (GC 4543); assay: acute lethal infection in mice; assay type: in vivo; conditions: acute lethal infection, female CD-1 mice, intraperitoneal challenge, intravenous 30 min. after infection, 7 day survival
Procedure, shortened: (§2)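 Survival at 7 days, pooled from three independent tests, yields ED50 values. Treatment is intravenous, 30 min after ip infection of female CD-1 mice, using an inoculum lethal to untreated controls within 24-48 hr.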

[5] = system: Enterococcus faecalis (GC 2246); assay: acute lethal infection in mice; assay type: in vivo; conditions: female CD-1 mice, intraperitoneal challenge, intravenous 30 min. after infection, 7 day survival
Procedure, shortened: as §2

[6] = system: Escherichia coli; assay: in vitro antibacterial evaluation, MIC by broth dilution; assay type: cell-based; conditions: 18 hours at 35° C.
Procedure, shortened: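 Broth dilution in Muller-Hinton II medium per NCCLS standard M7-A2, with an inoculum of 5×10^5 CFU/mL and antibiotic tested over 64-0.06 μg/mL. MIC was taken as the lowest concentration inhibiting visible growth.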

CC(c1ccccc1)C1NC(=O)CNC(=O)C(CO)NC(=O)C(C(O)C2CNC(=N)N2C2OC(CO)C(O)C(O)C2O)NC(=O)C(C(O)C2CNC(=N)N2)NC(=O)C(Cc2ccc(OC3OC(CO)C(OC4OC(COC(=O)C(c5ccccc5)c5ccccc5)C(O)C(O)C4O)C(O)C3O)cc2)NC1=O (stereo not drawn) [Example 96c, Cyclo[glycyl-β-methylphenylalanyl-O-[4-O-[6-O-(diphenylacetyl)hexolpyranosyl]hexopyranosyl]tyrosyl-3-(2-iminoimidazolidin-4-yl)seryl-3-(3-hexopyranosyl-2-iminoimidazolidin-4-yl)serylseryl]]
MIC Coagulase Negative Staphylococcus (GC 4547) [1]: 1 µg/mL (≈ 0.671 µM)
MIC Coagulase Negative Staphylococcus (GC 4548) [1]: 0.25 µg/mL (≈ 0.168 µM)
MIC Coagulase Negative Staphylococcus (GC 4549) [1]: 1 µg/mL (≈ 0.671 µM)
MIC Coagulase Negative Staphylococcus (GC 4551) [1]: 1 µg/mL (≈ 0.671 µM)
MIC Coagulase Negative Staphylococcus (ID-3941) [1]: 0.5 µg/mL (≈ 0.336 µM)
MIC Staphylococcus aureus-SMITH (GC 4543) [1]: 0.5 µg/mL (≈ 0.336 µM)
MIC Staphylococcus haemolyticus (GC 4546) [1]: 0.5 µg/mL (≈ 0.336 µM)
MIC Staphylococcus aureus (ATCC 29213) ([1]; strain ATCC 29213): 1 µg/mL (≈ 0.671 µM)
MIC Staphylococcus aureus (GC 1131) ([1]; strain GC 1131): 0.5 µg/mL (≈ 0.336 µM)
MIC Staphylococcus aureus (GC 4541) ([1]; strain GC 4541): 0.5 µg/mL (≈ 0.336 µM)
MIC Staphylococcus aureus (GC 4542) ([1]; strain GC 4542): 1 µg/mL (≈ 0.671 µM)
MIC Staphylococcus aureus-SMITH (GC 4543) ([1]; strain GC 4543): 0.5 µg/mL (≈ 0.336 µM)
MIC Staphylococcus aureus (GC 4544) ([1]; strain GC 4544): 1 µg/mL (≈ 0.671 µM)
MIC Staphylococcus aureus (GC 4545) ([1]; strain GC 4545): 0.5 µg/mL (≈ 0.336 µM)
MIC Staphylococcus haemolyticus (GC 4546) ([1]; strain GC 4546): 0.5 µg/mL (≈ 0.336 µM)
MIC Coagulase Negative Staphylococcus (GC 4547) ([1]; strain GC 4547): 1 µg/mL (≈ 0.671 µM)
MIC Coagulase Negative Staphylococcus (GC 4548) ([1]; strain GC 4548): 0.25 µg/mL (≈ 0.168 µM)
MIC Coagulase Negative Staphylococcus (GC 4549) ([1]; strain GC 4549): 1 µg/mL (≈ 0.671 µM)
MIC Coagulase Negative Staphylococcus (GC 4551) ([1]; strain GC 4551): 1 µg/mL (≈ 0.671 µM)
MIC Coagulase Negative Staphylococcus (ID-3941) ([1]; strain ID-3941): 0.5 µg/mL (≈ 0.336 µM)
MIC Streptococcus agalactiae (GC 4564) [2]: <0.06 µg/mL
MIC Streptococcus pneumoniae (GC 4565) [2]: <0.06 µg/mL
MIC Streptococcus pyogenes (ID-3187) [2]: <0.06 µg/mL
MIC Streptococcus agalactiae (GC 4564) ([2]; strain GC 4564): <0.06 µg/mL
MIC Streptococcus pneumoniae (GC 4565) ([2]; strain GC 4565): <0.06 µg/mL
MIC Streptococcus pyogenes (ID-3187) ([2]; strain ID-3187): <0.06 µg/mL
MIC Enterococcus avium (GC 4558) ([3]; Enterococcus avium (GC 4558)): 2 µg/mL (≈ 1.34 µM)
MIC Enterococcus faecalis (ATCC 29212) ([3]; Enterococcus faecalis (ATCC 29212)): 2 µg/mL (≈ 1.34 µM)
MIC Enterococcus faecalis (GC 4552) ([3]; Enterococcus faecalis (GC 4552)): 2 µg/mL (≈ 1.34 µM)
MIC Enterococcus faecalis (GC 4553) ([3]; Enterococcus faecalis (GC 4553)): 2 µg/mL (≈ 1.34 µM)
MIC Enterococcus faecalis (GC 4554) ([3]; Enterococcus faecalis (GC 4554)): 2 µg/mL (≈ 1.34 µM)
MIC Enterococcus faecium (GC 2243) ([3]; Enterococcus faecium (GC 2243)): 2 µg/mL (≈ 1.34 µM)
MIC Enterococcus faecium (GC 4556) ([3]; Enterococcus faecium (GC 4556)): 2 µg/mL (≈ 1.34 µM)
MIC Enterococcus faecium (GC 4557) ([3]; Enterococcus faecium (GC 4557)): 1 µg/mL (≈ 0.671 µM)
MIC Enterococcus avium (GC 4558) [3]: 2 µg/mL (≈ 1.34 µM)
MIC Enterococcus faecalis (ATCC 29212) [3]: 2 µg/mL (≈ 1.34 µM)
MIC Enterococcus faecalis (GC 2242) [3]: 1 µg/mL (≈ 0.671 µM)
MIC Enterococcus faecalis (GC 4552) [3]: 2 µg/mL (≈ 1.34 µM)
MIC Enterococcus faecalis (GC 4553) [3]: 2 µg/mL (≈ 1.34 µM)
MIC Enterococcus faecalis (GC 4554) [3]: 2 µg/mL (≈ 1.34 µM)
MIC Enterococcus faecium (GC 2243) [3]: 2 µg/mL (≈ 1.34 µM)
MIC Enterococcus faecium (GC 4556) [3]: 2 µg/mL (≈ 1.34 µM)
MIC Enterococcus faecium (GC 4557) [3]: 1 µg/mL (≈ 0.671 µM)
MIC Enterococcus faecalis (GC 2242) ([3]; strain GC 2242): 1 µg/mL (≈ 0.671 µM)
median effective dose (ED50), Staphylococcus aureus-SMITH (GC 4543) [4]: 0.29 mg/kg
median effective dose (ED50), Enterococcus faecalis (GC 2246) [5]: 5.2 mg/kg
MIC Escherichia coli (ATCC 25922) [6]: 64 µg/mL (≈ 43 µM)

— US6914045B2, “Glycopeptide antibiotics” (Wyeth Holdings Corporation, priority 2001, dated 2005)
